Test results as given in patent US12138369B2, “Magnetically-activated coating for treating biofilms, and associated systems and methods” (priority 2016, dated 2024).
Counter-ions that a name gives are not always drawn.

Key:
[1] = test system: Pseudomonas aeruginosa PAO1 biofilms; test: MBEC assay: antibiotic exposure with or without thermal shock, biofilm enumeration; format: cell-based; details: for viable biofilm bacteria after combined treatment: 1 min thermal shock; for effect on biofilm populations: higher concentrations, antibiotic on its own, cannot reliably eliminate
Protocol: Biofilm Growth: Cryogenically preserved Pseudomonas aerugiona PAO1 (15692, American Type Culture Collection, Manassas, Va.) was thawed and streaked on an agar plate (Difco Nutrient Agar, Sparks, Md., USA). The agar plates were inverted and incubated at 37° C. for 24 hours. An inoculum was made by suspending two colony forming units (CFUs) from the agar plate in five milliliters of sterile tryptic soy broth (TSB, BD Bacto, Sparks, Md., USA) made as directed and incubated at 37° C. for 24 hours, achieving an average concentration of 2.12×109±0.07×10^9 CFU/mL. One milliliter of inoculum was then diluted into 15 mL TSB and mixed gently. One hundred fifty microliters of the diluted mixture was then placed into each well of the 96-well plate, except for the negative control wells which received 150 μL of TSB. The plate was part of an MBEC™ assay (Innovotech, Edmonton, AB, Canada) in which a corresponding array of 96 pegs protrudes from the plate lid into the wells, providing a convenient array of substrates for biofilm growth which are then readily transferred to new wells (Harrison et al. 2010). The peg lid was placed onto the 96-well plate then sealed using Parafilm and placed on an orbital shaker table (VWR 1000, 15 mm orbit, Thorofare, N.J., USA) at 160 rpm and incubated at 37° C. for 24 hours.
Antibiotic Preparation: A stock of 5 mg/mL ciprofloxacin in sterile, de-ionized water was prepared with ciprofloxacin hydrochloride (MP Biomedicals, Santa Ana, Calif., USA) and mixed thoroughly. Tobramycin stock was made in a similar fashion by mixing 5 mg/mL tobramycin sulfate salt (Sigma-Aldrich, St. Louis, Mo., USA) in sterile, de-ionized water. Erythromycin was obtained from MP Biomedicals and the stock was prepared by mixing 5 mg/mL erythromycin into ethanol. Each antibiotic mixture was then filter sterilized through a […] PES membrane sterile filter (Millex®GP filter unit) and stored at 2° C. Each antibiotic was then diluted from the stock solution into sterile TSB at an array of concentrations in a 96-well challenge plate used that day.
Antibiotic Exposure: After 24 hr of growth, the array of biofilm-covered pegs was transferred into a 96-well rinse plate (Costar® 96 well flat bottom cell culture, Corning Incorporated, NY, USA) containing 200 μL/well de-ionized, sterile water at ambient temperature for 2 min to remove bacteria not incorporated in the biofilm. The peg lid was then transferred to a 96-well challenge plate of wells containing 200 μL of various concentrations of ciprofloxacin, tobramycin, or erythromycin diluted in TSB. For the antibiotic experiments without thermal shock the peg lid was exposed to a single challenge plate for 24 hours in an incubator at 37° C. before rinsing again for 2 min in a new rinse plate. The peg lid was then transferred to a recovery plate containing 200 μL/well fresh, sterile TSB for resuspension and enumeration.
Antibiotic and Thermal Exposure: To investigate the combined effect of antibiotics and thermal shock, biofilms cultured and exposed to antibiotics as discussed above were removed from their antibiotic challenge plate after only four hours. They were quickly transferred to a challenge plate with the same array of antibiotic concentrations, preheated to the target temperature by a thermostatted water bath. Temperatures of 37° C., 50° C., 60° C., 70° C., and 80° C. were studied at exposure times of 1, 5, and 30 min. The pegs were left in the heated challenge plate for the desired exposure time, then transferred to a new challenge plate with the same antibiotic concentrations at 37° C. and incubated for the remainder of the total 24 hour antibiotic exposure time. Following 24 total hours of antibiotic exposure time the peg lid was rinsed once again for two minutes in a new rinse plate and placed into a recovery plate for resuspension and enumeration. […]

[2] = test system: dispersed planktonic bacteria (Pseudomonas aeruginosa PAO1); test: Optical density measurements of planktonic bacteria dispersed from biofilm; format: cell-based
Protocol: Optical Density Measurements of Planktonic Bacteria: The planktonic bacteria that had escaped the biofilm via dispersion after the thermal treatment were optically observed to better understand the biofilm's dispersion post-thermal treatment while antibiotics were still present. To estimate the free-swimming bacteria following the antibiotic treatment, the optical density (BioTek Gen5 Microplate Reader, Winooski, Vt., USA) at 600 nm was measured for each well in the second challenge plate. The negative controls in the challenge plate contained only TSB and were used to calculate an average background.
Statistical Analysis: The statistical analysis of both the planktonic optical density reads and the logarithmic CFU counts were reported via their arithmetic mean and standard deviation. […] Statistical analysis was performed in GraphPad Prism 7 using the two-way ANOVA with a confidence interval of 95%.

With O=C(O)c1cn(C2CC2)c2cc(N3CCNCC3)c(F)cc2c1=O [Ciprofloxacin, ciprofloxacin hydrochloride] the effect on biofilms ([1]; 0.125 μg/mL by itself) was “little effect”, the “reduction of biofilm populations” value ([1]; 0.125 μg/mL combined with thermal shock at 60° C. for 5 min) was “five orders of magnitude” and the “reduction of biofilm populations” value ([1]; 0.125 μg/mL combined with thermal shock at 70° C. for 1 min) was “five orders of magnitude”. For the same compound, the “viable biofilm bacteria after combined treatment” value ([1]; 1 μg/mL combined with 70° C.) was “no viable bacteria”, the “decrease in viable bacteria of biofilms” value ([1]; 1 μg/mL, regardless of the heating) was “at least a five-order magnitude decrease” and the “decrease in viable bacteria of biofilms” value ([1]; 4 μg/mL (bloodstream concentration), regardless of the heating) was “at least a five-order magnitude decrease”. The “viable biofilm bacteria after combined treatment” value ([1]; 4 μg/mL combined with 70° C.) was “no viable bacteria”, the “effect on biofilm populations” value [1] was “significantly reduce biofilm populations” and the “effect on dispersed planktonic bacteria” value ([2]; 0.125, 1.0, and 4.0 μg/mL, OD 600 nm) was “effective against the planktonic bacteria”. The “effect on dispersed planktonic bacteria” value ([2]; higher two concentrations (1.0, 4.0 μg/mL), regardless of thermal shock) was “killing off almost all the free-swimming bacteria”.

In the case of CC[C@H]1OC(=O)[C@H](C)[C@@H](O[C@H]2C[C@@](C)(OC)[C@@H](O)[C@H](C)O2)[C@H](C)[C@@H](O[C@@H]2O[C@H](C)C[C@H](N(C)C)[C@H]2O)[C@](C)(O)C[C@@H](C)C(=O)[C@H](C)[C@@H](O)[C@]1(C)O [Erythromycin, erythromycin], the “decrease in viable bacteria of biofilms” value ([1]; 60° C. for 5 min, 64 μg/mL) is reported as 1.5 log(CFU/peg), the “decrease in viable bacteria of biofilms” value ([1]; 60° C. for 5 min, 128 μg/mL) is reported as 2.7 log(CFU/peg) and the “decrease in viable bacteria of biofilms” value ([1]; 70° C. for 1 min, 64 μg/mL) is reported as 2.3 log(CFU/peg). The “decrease in viable bacteria of biofilms” value ([1]; 70° C. for 1 min, 128 μg/mL) was 6.0 log(CFU/peg), the effect on biofilms ([1]; any concentration, control temperature 37° C.) was “no effect” and the effect on biofilms ([1]; any concentration, in combination with 50° C. thermal treatments) was “no effect”. The “effect on dispersed planktonic bacteria” value ([2]; 2 μg/mL) was “no discernible effect”, the “effect on dispersed planktonic bacteria” value ([2]; 64 μg/mL, even without thermal shock) was “significant reduction in population” and the “effect on dispersed planktonic bacteria” value ([2]; 128 μg/mL) was “further decrease in viable planktonic bacterial cells”. The “effect on dispersed planktonic bacteria, combined treatment” value ([2]; with 60° C. thermal shock for 5 min) was “significantly reduced from the non-thermal-shocked values”.

In the case of tobramycin sulfate salt, the “effect of combined thermal shock and antibiotic on biofilm” value ([1]; 50° C. for 30 min, 60° C. for 5 min, and 70° C. for 1 min) is reported as “larger than either treatment by itself”, the “trend of biofilm mitigation with thermal exposure time” value ([1]; all non-zero concentrations, regardless of temperature (not at 37° C. control)) is reported as “prolonged thermal exposure time increasing the overall efficacy of biofilm mitigation” and the “effect on biofilm populations” value [1] is reported as “significantly reduce biofilm populations”. For the same compound, the “effect on dispersed planktonic bacteria” value ([2]; 1.0, 2.0, and 4.0 μg/mL, OD 600 nm) was “effective against the planktonic bacteria” and the “effect on dispersed planktonic bacteria” value ([2]; higher two concentrations (2.0, 4.0 μg/mL), regardless of thermal shock) was “killing off almost all the free-swimming bacteria”.
